Test results reported in ChEMBL document CHEMBL3639104, “Ring-fused compound” (2015).
pIC50: −log10 of the molar value.

Target: T1, Solute carrier family 22 member 12 (Homo sapiens, UniProt Q96S37)
T1 sequence (Q96S37 whole entry): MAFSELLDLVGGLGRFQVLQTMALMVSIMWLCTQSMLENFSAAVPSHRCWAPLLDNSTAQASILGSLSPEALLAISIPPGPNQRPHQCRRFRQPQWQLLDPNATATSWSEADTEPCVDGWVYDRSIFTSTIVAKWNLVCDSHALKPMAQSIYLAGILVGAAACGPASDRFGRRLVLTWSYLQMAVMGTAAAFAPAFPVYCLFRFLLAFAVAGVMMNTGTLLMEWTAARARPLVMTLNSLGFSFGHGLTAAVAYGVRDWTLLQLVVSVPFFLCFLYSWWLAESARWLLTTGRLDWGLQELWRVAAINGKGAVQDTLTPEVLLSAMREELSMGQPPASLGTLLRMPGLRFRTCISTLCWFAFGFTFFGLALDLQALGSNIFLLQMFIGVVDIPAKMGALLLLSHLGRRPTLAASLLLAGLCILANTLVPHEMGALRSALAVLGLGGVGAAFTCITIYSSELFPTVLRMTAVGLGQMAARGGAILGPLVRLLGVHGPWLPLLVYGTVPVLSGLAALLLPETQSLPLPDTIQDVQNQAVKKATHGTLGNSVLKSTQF
Experiment: Inhibition Assay: It was introduced human URAT1 full-length cDNA into an expression vector pcDNA5 / FRT / V5-His TOPO (registered trademark) (Invitrogen). The resulting expression plasmids, the liposome method using Lipofectamine LTX (Invitrogen), Chinese hamster ovary cells (hereinafter, referred to as CHO cells) was introduced into, by culturing in a selective medium containing hygromycin and human URAT1 stable The expression cell line we were prepared.Human URAT1 expression CHO cells, 10% fetal calf serum, D-MEM / F-12 containing the hygromycin (1: 1) using a mixed medium, 37 C, were cultured in the presence of 5% CO2. Cells were seeded in 96-well plates (Corning Incorporated) in 0.8x10E+5 cells / well, were subjected to the following uric acid transport inhibition test after 24 hours.After removal of the medium by aspiration, sodium gluconate of cells 125mM, potassium gluconate of 4.8mM, potassium dihydrogen phosphate of 1.2mM, magnesium sulfate of 1.2mM, calcium gluconate of 1.3mM, 5. washed once.
Assay type: cell-based

Row | SMILES | pIC50
1 | Cc1nn(Cc2c(Cl)cccc2Cl)c2cc(C(C)(C)C(=O)O)ccc12 | 7.01
2 | Cc1nn(Cc2c(Cl)cccc2Cl)c2cc(C(C)C(=O)O)ccc12 (configuration not stated) | 7.12
